From patent US7256192B2, “Aromatic diamide derivatives, chemicals for agricultural or horticultural use and usage thereof” (Nihon Nohyaku Co., Ltd., priority 1999, dated 2007)

These compounds were tested on common cutworm (Spodoptera litura) (assay: Insecticidal effect on common cutworm (Test Example 2)). Details: 50 ppm; cabbage leaf immersed about 30 seconds; second-instar larvae; eight days after the inoculation; 25° C.
Format: in vivo
Excerpt: Insecticidal effect on common cutworm (Spodoptera litura)
A piece of cabbage leaf (cultivar: Shikidori) was immersed for about 30 seconds in a liquid chemical prepared by diluting a preparation containing each compound listed in Table 1 or Table 2, as an active ingredient to adjust the concentration to 50 ppm. After air-drying, the piece was placed in a plastic Petri dish with a diameter of 9 cm and inoculated with second-instar larvae of common cutworm, after which the dish was closed and then allowed to stand in a room thermostated at 25° C. Eight days after the inoculation, the dead and alive were counted and the mortality was calculated according to the following equation, whereby the insecticidal effect was judged according to the criterion shown in Test Example 1. The test was carried out with three replications of 10 insects.

SMILES | insecticidal activity (mortality rating)
CCCNC(=O)OCC(C)(C)NC(=O)c1c(I)cccc1C(=O)Nc1ccc(C(F)(C(F)(F)F)C(F)(F)F)cc1Cl [compound 130] | B or higher
CCCNC(=O)OCC(C)(C)NC(=O)c1c(I)cccc1C(=O)Nc1ccc(C(F)(C(F)(F)F)C(F)(F)F)cc1C [compound 129] | B or higher
COC(=O)NCC(C)NC(=O)c1c(I)cccc1C(=O)Nc1ccc(C(F)(C(F)(F)F)C(F)(F)F)cc1C (stereo not shown) [compound 22] | B or higher
Cc1cc(C(F)(C(F)(F)F)C(F)(F)F)ccc1NC(=O)c1cccc(I)c1C(=O)NC(C)(C)CNC(=O)C1CC1 [compound 29] | B or higher
CCNC(=O)OCC(C)NC(=O)c1c(I)cccc1C(=O)Nc1ccc(C(F)(C(F)(F)F)C(F)(F)F)nc1Cl (racemic) [2-39] | B or higher
Cc1cc(C(F)(C(F)(F)F)C(F)(F)F)ccc1NC(=O)c1cccc(I)c1C(=O)NC(C)CCOCC(C)C (stereo not shown) [compound 74] | B or higher
CCNC(=O)OCC(C)NC(=O)c1c(I)cccc1C(=O)Nc1ccc(OC(C(F)(F)F)C(F)(F)F)nc1C (racemic) [2-47] | B or higher
Cc1cc(OC(F)(F)F)ccc1NC(=O)c1cccc(I)c1C(=O)NC(C)COC(=O)NC1CC1 (stereo not shown) [compound 134] | B or higher
CSCCCNC(=O)OCC(C)(C)NC(=O)c1c(I)cccc1C(=O)Nc1ccc(C(F)(C(F)(F)F)C(F)(F)F)cc1C [compound 184] | B or higher
COCCC(C)NC(=O)c1c(I)cccc1C(=O)Nc1ccc(C(F)(C(F)(F)F)C(F)(F)F)cc1C (stereo not shown) [compound 59] | B or higher
COc1ccc(CNC(=O)OCC(C)NC(=O)c2c(I)cccc2C(=O)Nc2ccc(OC(C(F)(F)F)C(F)(F)F)nc2C)cc1 (racemic) [2-72] | B or higher
CCNC(=O)OCC(C)NC(=O)c1c(I)cccc1C(=O)Nc1ccc(C(OCC)(C(F)(F)F)C(F)(F)F)cc1C (stereo not shown) [compound 279] | B or higher
COCCNC(=O)OCC(C)(C)NC(=O)c1c(I)cccc1C(=O)Nc1ccc(C(F)(C(F)(F)F)C(F)(F)F)cc1C [compound 172] | B or higher
CC(=O)NCC(C)(C)NC(=O)c1c(I)cccc1C(=O)Nc1ccc(C(F)(C(F)(F)F)C(F)(F)F)cc1C [compound 28] | B or higher
CCNC(=O)OCC(C)NC(=O)c1c(I)cccc1C(=O)Nc1ccc(C(F)(F)C(F)(F)C(F)(F)F)cc1C (stereo not shown) [compound 272] | B or higher
CCN(CC)C(=O)OCC(C)NC(=O)c1c(I)cccc1C(=O)Nc1ccc(C(F)(C(F)(F)F)C(F)(F)F)nc1C (racemic) [2-32] | B or higher
Cc1cc(C(F)(C(F)(F)F)C(F)(F)F)ccc1NC(=O)c1ccc(Cl)c(Cl)c1C(=O)NC(C)COC(=O)NCc1ccccc1 (stereo not shown) [compound 229] | B or higher
Cc1cc(C(F)(C(F)(F)F)C(F)(F)F)ccc1NC(=O)c1cccc(I)c1C(=O)NC(C)COC(=O)N(C)C (stereo not shown) [compound 88] | B or higher
CNC(=O)OCC(C)(C)NC(=O)c1c(I)cccc1C(=O)Nc1ccc(C(F)(C(F)(F)F)C(F)(F)F)nc1C [2-35] | B or higher
CCOC(=O)NCC(C)(C)NC(=O)c1c(I)cccc1C(=O)Nc1ccc(C(F)(F)C(F)(F)F)cc1C [compound 19] | B or higher
Cc1cc(C(F)(C(F)(F)F)C(F)(F)F)ccc1NC(=O)c1cccc(I)c1C(=O)NC(C)COC(=O)NC1CC1 (stereo not shown) [compound 133] | B or higher
Cc1cc(C(F)(C(F)(F)F)C(F)(F)F)ccc1NC(=O)c1cccc(I)c1C(=O)NCC1COC(C)(C)O1 (stereo not shown) [compound 51] | B or higher
